According to patent US20240327411A1, “SIRT6 ACTIVATORS” (The Board of Regents of The University of Texas System, priority 2022, published 2024):
Where “and” joins values, the source holds several entries; their conditions need not be identical. Equal values may be shown once.

Biological target: Sirt6 (Homo sapiens, UniProt Q8N6T7)
Assay: Sirt6-dependent peptide deacetylation, FLUOR DE LYS / Sirt6 fluorometric activity kit
Assay type: biochemical
Details: mean ± SD, at least two independent experiments; for Activation Fold 100 μM: compound at 100 μM; for Activation Fold 30 μM: compound at 30 μM
Procedure: Sirt6/Sirt1/Sirt2/Sirt3 activity was tested by Activity Assay Kits (Abcam) according to the manufacturer's instruction with minor modification. […] All experiments were conducted at room temperature.

Sirt6, sequence (Q8N6T7 whole entry): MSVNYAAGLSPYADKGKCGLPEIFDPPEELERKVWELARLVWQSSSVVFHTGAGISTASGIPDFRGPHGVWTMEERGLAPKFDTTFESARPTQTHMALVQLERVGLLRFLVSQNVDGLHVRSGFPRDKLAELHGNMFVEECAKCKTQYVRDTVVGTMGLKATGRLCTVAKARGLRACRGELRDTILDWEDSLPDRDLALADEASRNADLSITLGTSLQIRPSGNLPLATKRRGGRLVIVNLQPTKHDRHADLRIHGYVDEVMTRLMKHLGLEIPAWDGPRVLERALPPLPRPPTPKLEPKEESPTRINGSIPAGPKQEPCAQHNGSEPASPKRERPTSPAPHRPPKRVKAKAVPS

Clc1ncccc1C1Nc2ccccc2-n2cccc21 (centres unmarked) [Compound 14, 4-(2-Chloropyridin-3-yl)-4,5-dihydropyrrolo[1,2-a]quinoxaline]
Activation Fold 100 μM: 1.04 ± 0.02 fold

CN(C)c1ncccc1C1Nc2ccccc2-n2cccc21 (centres unmarked) [Compound 15, 3-(4,5-Dihydropyrrolo[1,2-a]quinoxalin-4-yl)-N,N-dimethylpyridin-2-amine]
Activation Fold 100 μM: 1.08 ± 0.09 fold

c1ccc2c(c1)NC(c1cccnc1N1CCC1)c1cccn1-2 (centres unmarked) [Compound 16, 4-(2-(Azetidin-1-yl)pyridin-3-yl)-4,5-dihydropyrrolo[1,2-a]quinoxaline]
Activation Fold 100 μM: 1.38 ± 0.11 fold

OC1CN(c2ncccc2C2Nc3ccccc3-n3cccc32)C1 (centres unmarked) [Compound 17, 1-(3-(4,5-Dihydropyrrolo[1,2-a]quinoxalin-4-yl)pyridin-2-yl)azetidin-3-ol]
Activation Fold 100 μM: 1.47 ± 0.10 fold

c1ccc2c(c1)NC(c1cccnc1N1CCCC1)c1cccn1-2 (centres unmarked) [Compound 18, 4-(2-(Pyrrolidin-1-yl)pyridin-3-yl)-4,5-dihydropyrrolo[1,2-a]quinoxaline]
Activation Fold 100 μM: 1.22 ± 0.03 fold

CN1CCCN(c2ncccc2C2Nc3ccccc3-n3cccc32)CC1 (centres unmarked) [Compound 19, 4-(2-(4-Methyl-1,4-diazepan-1-yl)pyridin-3-yl)-4,5-dihydropyrrolo[1,2-a]quinoxaline]
Activation Fold 30 μM: 2.18 ± 0.02 fold
Activation Fold 100 μM: 4.23 ± 0.06 fold

CN1C[C@@H]2CN(c3ncccc3C3Nc4ccccc4-n4cccc43)C[C@@H]2C1 (stereo partly drawn) [Compound 20, 4-(2-((3aR,6aS)-5-Methylhexahydropyrrolo[3,4-c]pyrrol-2(1H)-yl)pyridin-3-yl)-4,5-dihydropyrrolo[1,2-a]quinoxaline]
Activation Fold 30 μM: 2.00 ± 0.11 fold
Activation Fold 100 μM: 4.24 ± 0.04 fold

CN1CCN(c2ncccc2C2Nc3ccccc3-n3cccc32)CC1 (centres unmarked) [Compound 21, 4-(2-(4-Methylpiperazin-1-yl)pyridin-3-yl)-4,5-dihydropyrrolo[1,2-a]quinoxaline]
Activation Fold 30 μM: 2.44 fold and 2.44 ± 0.04 fold
Activation Fold 100 μM: 4.62 fold and 4.62 ± 0.12 fold

CC(=O)N1CCN(c2ncccc2C2Nc3ccccc3-n3cccc32)CC1 (centres unmarked) [Compound 22, 1-(4-(3-(4,5-Dihydropyrrolo[1,2-a]quinoxalin-4-yl)pyridin-2-yl)piperazin-1-yl)ethan-1-one]
Activation Fold 30 μM: 1.60 ± 0.01 fold
Activation Fold 100 μM: 2.74 fold and 2.74 ± 0.10 fold

CS(=O)(=O)N1CCN(c2ncccc2C2Nc3ccccc3-n3cccc32)CC1 (centres unmarked) [Compound 23, 4-(2-(4-(Methylsulfonyl)piperazin-1-yl)pyridin-3-yl)-4,5-dihydropyrrolo[1,2-a]quinoxaline]
Activation Fold 30 μM: 2.03 ± 0.02 fold
Activation Fold 100 μM: 3.63 fold and 3.63 ± 0.10 fold

FC1(F)CCN(c2ncccc2C2Nc3ccccc3-n3cccc32)CC1 (centres unmarked) [Compound 25, 4-(2-(4,4-Difluoropiperidin-1-yl)pyridin-3-yl)-4,5-dihydropyrrolo[1,2-a]quinoxaline]
Activation Fold 100 μM: ~2 fold and 1.54 ± 0.03 fold

O=S1(=O)CCN(c2ncccc2C2Nc3ccccc3-n3cccc32)CC1 (centres unmarked) [Compound 26, 4-(3-(4,5-Dihydropyrrolo[1,2-a]quinoxalin-4-yl)pyridin-2-yl)thiomorpholine 1,1-dioxide]
Activation Fold 30 μM: 1.32 ± 0.01 fold
Activation Fold 100 μM: ~2 fold and 2.24 ± 0.09 fold

OC1CCN(c2ncccc2C2Nc3ccccc3-n3cccc32)CC1 (centres unmarked) [Compound 27, 1-(3-(4,5-Dihydropyrrolo[1,2-a]quinoxalin-4-yl)pyridin-2-yl)piperidin-4-ol]
Activation Fold 30 μM: 1.29 ± 0.05 fold
Activation Fold 100 μM: ~2 fold and 2.38 ± 0.15 fold

c1ccc2c(c1)NC(c1cccnc1N1CCC(N3CCCC3)CC1)c1cccn1-2 (centres unmarked) [Compound 29, 4-(2-(4-(Pyrrolidin-1-yl)piperidin-1-yl)pyridin-3-yl)-4,5-dihydropyrrolo[1,2-a]quinoxaline]
Activation Fold 30 μM: 1.89 ± 0.01 fold
Activation Fold 100 μM: 3.44 fold and 3.44 ± 0.07 fold

COCCCN1CCN(c2ncccc2C2Nc3ccccc3-n3cccc32)CC1 (centres unmarked) [Compound 37, 4-(2-(4-(3-Methoxypropyl)piperazin-1-yl)pyridin-3-yl)-4,5-dihydropyrrolo[1,2-a]quinoxaline]
Activation Fold 30 μM: 3.13 ± 0.14 fold
Activation Fold 100 μM: 5.02 ± 0.25 fold

CN(C)C(=O)CN1CCN(c2ncccc2C2Nc3ccccc3-n3cccc32)CC1 (centres unmarked) [Compound 39, 2-(4-(3-(4,5-Dihydropyrrolo[1,2-a]quinoxalin-4-yl)pyridin-2-yl)piperazin-1-yl)-N,N-dimethylacetamide]
Activation Fold 30 μM: 3.21 ± 0.06 fold
Activation Fold 100 μM: 6.60 ± 0.22 fold

N#CCN1CCN(c2ncccc2C2Nc3ccccc3-n3cccc32)CC1 (centres unmarked) [Compound 40, 2-(4-(3-(4,5-Dihydropyrrolo[1,2-a]quinoxalin-4-yl)pyridin-2-yl)piperazin-1-yl)acetonitrile]
Activation Fold 30 μM: 2.37 ± 0.04 fold
Activation Fold 100 μM: 4.74 ± 0.26 fold

NC(=O)CN1CCN(c2ncccc2C2Nc3ccccc3-n3cccc32)CC1 (centres unmarked) [Compound 41, 2-(4-(3-(4,5-Dihydropyrrolo[1,2-a]quinoxalin-4-yl)pyridin-2-yl)piperazin-1-yl)acetamide]
Activation Fold 30 μM: 1.73 ± 0.12 fold
Activation Fold 100 μM: 3.43 ± 0.48 fold

O=C(CCl)N1CCN(c2ncccc2C2Nc3ccccc3-n3cccc32)CC1 (centres unmarked) [Compound 42, 2-Chloro-1-(4-(3-(4,5-dihydropyrrolo[1,2-a]quinoxalin-4-yl)pyridin-2-yl)piperazin-1-yl)ethan-1-one]
Activation Fold 30 μM: 1.93 ± 0.02 fold
Activation Fold 100 μM: 2.84 ± 0.28 fold

CN(C)CC(=O)N1CCN(c2ncccc2C2Nc3ccccc3-n3cccc32)CC1 (centres unmarked) [Compound 43, 1-(4-(3-(4,5-Dihydropyrrolo[1,2-a]quinoxalin-4-yl)pyridin-2-yl)piperazin-1-yl)-2-(dimethylamino)ethan-1-one]
Activation Fold 30 μM: 2.31 ± 0.07 fold
Activation Fold 100 μM: 3.78 ± 0.15 fold

O=C(N1CCN(c2ncccc2C2Nc3ccccc3-n3cccc32)CC1)N1CC(O)C1 (centres unmarked) [Compound 44, (4-(3-(4,5-Dihydropyrrolo[1,2-a]quinoxalin-4-yl)pyridin-2-yl)piperazin-1-yl)(3-hydroxyazetidin-1-yl)methanone]
Activation Fold 30 μM: 2.67 fold and 2.67 ± 0.19 fold
Activation Fold 100 μM: 5.26 fold and 5.26 ± 0.13 fold

c1ccc2c(c1)NC(c1cccnc1N1CCN(CCN3CCC3)CC1)c1cccn1-2 (centres unmarked) [Compound 45, 4-(2-(4-(2-(Azetidin-1-yl)ethyl)piperazin-1-yl)pyridin-3-yl)-4,5-dihydropyrrolo[1,2-a]quinoxaline]
Activation Fold 30 μM: 2.81 ± 0.01 fold
Activation Fold 100 μM: 5.85 ± 0.01 fold

O=C1CCCN1CCN1CCN(c2ncccc2C2Nc3ccccc3-n3cccc32)CC1 (centres unmarked) [Compound 48, 1-(2-(4-(3-(4,5-Dihydropyrrolo[1,2-a]quinoxalin-4-yl)pyridin-2-yl)piperazin-1-yl)ethyl)pyrrolidin-2-one]
Activation Fold 30 μM: 3.48 ± 0.02 fold
Activation Fold 100 μM: 5.64 ± 0.43 fold

c1ccc2c(c1)NC(c1cccnc1N1CCN(CCN3CCOCC3)CC1)c1cccn1-2 (centres unmarked) [Compound 49, 4-(2-(4-(3-(4,5-Dihydropyrrolo[1,2-a]quinoxalin-4-yl)pyridin-2-yl)piperazin-1-yl)ethyl)morpholine]
Activation Fold 30 μM: 3.02 ± 0.04 fold
Activation Fold 100 μM: 5.99 ± 0.21 fold

CN(C)CCN1CCN(c2ccccc2C2Nc3ccccc3-n3cccc32)CC1 (centres unmarked) [Compound 63, 2-(4-(2-(4,5-Dihydropyrrolo[1,2-a]quinoxalin-4-yl)phenyl)piperazin-1-yl)-N,N-dimethylethan-1-amine]
Activation Fold 30 μM: 2.62 fold and 2.62 ± 0.34 fold
Activation Fold 100 μM: 5.43 fold and 5.43 ± 0.21 fold

CN(C)CCN1CCN(c2ncccc2C2Oc3ccccc3-n3cccc32)CC1 (centres unmarked) [Compound 66, 2-(4-(3-(4H-Benzo[b]pyrrolo[1,2-d][1,4]oxazin-4-yl)pyridin-2-yl)piperazin-1-yl)-N,N-dimethylethan-1-amine]
Activation Fold 30 μM: 2.67 fold and 2.67 ± 0.01 fold
Activation Fold 100 μM: 4.23 fold and 4.23 ± 0.22 fold

Cc1ccc2c(c1)-n1cccc1C(c1cccnc1N1CCN(CCN(C)C)CC1)O2 (centres unmarked) [Compound 68, N,N-Dimethyl-2-(4-(3-(8-methyl-4H-benzo[b]pyrrolo[1,2-d][1,4]oxazin-4-yl)pyridin-2-yl)piperazin-1-yl)ethan-1-amine]
Activation Fold 30 μM: 2.99 ± 0.05 fold
Activation Fold 100 μM: 4.56 ± 0.04 fold

COc1ccc2c(c1)-n1cccc1C(c1cccnc1N1CCN(CCN(C)C)CC1)O2 (centres unmarked) [Compound 69, 2-(4-(3-(8-Methoxy-4H-benzo[b]pyrrolo[1,2-d][1,4]oxazin-4-yl)pyridin-2-yl)piperazin-1-yl)-N,N-dimethylethan-1-amine]
Activation Fold 30 μM: 4.51 ± 0.06 fold
Activation Fold 100 μM: 5.65 ± 0.22 fold

CN(C)CCN1CCN(c2ncccc2C2Oc3ccc(F)cc3-n3cccc32)CC1 (centres unmarked) [Compound 70, 2-(4-(3-(8-Fluoro-4H-benzo[b]pyrrolo[1,2-d][1,4]oxazin-4-yl)pyridin-2-yl)piperazin-1-yl)-N,N-dimethylethan-1-amine]
Activation Fold 30 μM: 1.84 ± 0.04 fold
Activation Fold 100 μM: 2.53 fold and 2.53 ± 0.05 fold

COC(=O)c1ccc2c(c1)OC(c1cccnc1N1CCN(CCN(C)C)CC1)c1cccn1-2 (centres unmarked) [Compound 71, Methyl 4-(2-(4-(2-(dimethylamino)ethyl)piperazin-1-yl)pyridin-3-yl)-4H-benzo[b]pyrrolo[1,2-d][1,4]oxazine-7-carboxylate]
Activation Fold 30 μM: 4.16 ± 0.18 fold
Activation Fold 100 μM: 4.82 ± 0.14 fold

CN(C)CCN1CCN(c2ncccc2C2Oc3cc(CO)ccc3-n3cccc32)CC1 (centres unmarked) [Compound 72, (4-(2-(4-(2-(Dimethylamino)ethyl)piperazin-1-yl)pyridin-3-yl)-4H-benzo[b]pyrrolo[1,2-d][1,4]oxazin-7-yl)methanol]
Activation Fold 30 μM: 1.59 ± 0.03 fold
Activation Fold 100 μM: 2.69 fold and 2.69 ± 0.03 fold
